Results as given in patent publication US8735424B2 (Novartis AG, priority 2008, dated 2014).

What was measured:
PIM1 = PIM1 (Homo sapiens, UniProt P11309); test: Pim1 ATP depletion assay; format: biochemical; conditions: 20 μM ATP, 2.5 nM PIM1
Protocol: The activity of PIM1 is measured using a luciferase-luciferin based ATP detection reagent to quantify ATP depletion resulting from kinase-catalyzed phosphoryl transfer to a peptide substrate. Compounds to be tested are dissolved in 100% DMSO and directly distributed into white 384-well plates at 0.5 μl per well. To start the reaction, 10 μl of 5 nM Pim1 kinase and 80 μM BAD peptide (RSRHSSYPAGT-OH) in assay buffer (50 mM HEPES pH 7.5, 5 mM MgCl2, 1 mM DTT, 0.05% BSA) is added into each well. After 15 minutes, 10 μl of 40 μM ATP in assay buffer is added. Final assay concentrations are 2.5 nM PIM1, 20 μM ATP, 40 μM BAD peptide and 2.5% DMSO. The reaction is performed until approximately 50% of the ATP is depleted, then stopped with the addition of 20 μl KinaseGlo Plus (Promega Corporation) solution. The stopped reaction is incubated for 10 minutes and the remaining ATP detected via luminescence on the Victor2 (Perkin Elmer). […] IC50, the half maximal inhibitory concentration, represents the concentration of a test compound that is required for 50% inhibition of its target in vitro.

PIM2 = PIM2 (Homo sapiens, UniProt Q9P1W9); test: Pim2 ATP depletion assay; format: biochemical; conditions: 4 μM ATP, 5 nM PIM2
Chain of PIM2 (Q9P1W9 whole entry): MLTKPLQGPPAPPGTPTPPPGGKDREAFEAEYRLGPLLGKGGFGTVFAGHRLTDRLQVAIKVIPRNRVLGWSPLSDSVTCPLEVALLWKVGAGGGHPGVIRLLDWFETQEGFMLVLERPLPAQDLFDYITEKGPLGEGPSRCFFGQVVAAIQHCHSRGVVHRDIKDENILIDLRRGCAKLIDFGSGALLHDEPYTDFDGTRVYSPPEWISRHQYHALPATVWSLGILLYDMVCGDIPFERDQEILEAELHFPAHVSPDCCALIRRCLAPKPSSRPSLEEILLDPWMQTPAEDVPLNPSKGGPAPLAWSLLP
Protocol: The activity of PIM2 is measured using a luciferase-luciferin based ATP detection reagent to quantify ATP depletion resulting from kinase-catalyzed phosphoryl transfer to a peptide substrate. Compounds to be tested are dissolved in 100% DMSO and directly distributed into white 384-well plates at 0.5 μl per well. To start the reaction, 10 μl of 10 nM Pim2 kinase and 20 μM BAD peptide (RSRHSSYPAGT-OH) in assay buffer (50 mM HEPES pH 7.5, 5 mM MgCl2, 1 mM DTT, 0.05% BSA) is added into each well. After 15 minutes, 10 μl of 8 μM ATP in assay buffer is added. Final assay concentrations are 5 nM PIM2, 4 μM ATP, 10 μM BAD peptide and 2.5% DMSO. The reaction is performed until approximately 50% of the ATP is depleted, then stopped with the addition of 20 μl KinaseGlo Plus (Promega Corporation) solution. The stopped reaction is incubated for 10 minutes and the remaining ATP detected via luminescence on the Victor2 (Perkin Elmer).

PIM3 = PIM3 (Homo sapiens, UniProt Q86V86); test: Pim3 ATP depletion assay; format: biochemical; conditions: 40 μM ATP
Protocol: The activity of PIM3 is measured using a luciferase-luciferin based ATP detection reagent to quantify ATP depletion resulting from kinase-catalyzed phosphoryl transfer to a peptide substrate. Compounds to be tested are dissolved in 100% DMSO and directly distributed into white 384-well plates at 0.5 μl per well. To start the reaction, 10 μl of 10 nM Pim3 kinase and 200 μM BAD peptide (RSRHSSYPAGT-OH) in assay buffer (50 mM HEPES pH 7.5, 5 mM MgCl2, 1 mM DTT, 0.05% BSA) is added into each well. After 15 minutes, 10 μl of 80 μM ATP in assay buffer is added. Final assay concentrations are 5 nM PIM1, 40 μM ATP, 100 μM BAD peptide and 2.5% DMSO. The reaction is performed until approximately 50% of the ATP is depleted, then stopped by the addition of 20 μl KinaseGlo Plus (Promega Corporation) solution. The stopped reaction is incubated for 10 minutes and the remaining ATP detected via luminescence on the Victor2 (Perkin Elmer).

KMS11 cells = test: Cell proliferation assay (CellTiter-Glo); format: cell-based; conditions: KMS-11, 72 h; KMS11 human myeloma cell line, 3 days
Protocol: KMS11 (human myeloma cell line), were cultured in IMDM supplemented with 10% FBS, sodium pyruvate and antibiotics. Cells were plated in the same medium at a density of 2000 cells per well into 96 well tissue culture plates, with outside wells vacant, on the day of assay. MM1.s (human myeloma cell line), were cultured in RPMI1640 supplemented with 10% FBS, sodium pyruvate and antibiotics. Cells were plated in the same medium at a density of 5000 cells per well into 96 well tissue culture plates, with outside wells vacant, on the day of assay.
Test compounds supplied in DMSO were diluted into DMSO at 500 times the desired final concentrations before dilution into culture media to 2 times final concentrations. Equal volumes of 2× compounds were added to the cells in 96 well plates and incubated at 37° C. for 3 days.
After 3 days plates were equilibrated to room temperature and equal volume of CellTiter-Glow Reagent (Promega) was added to the culture wells. The plates were agitated briefly and luminescent signal was measured with luminometer. The percent inhibition of the signal seen in cells treated with DMSO alone vs. cells treated with control compound was calculated and used to determine EC50 values (i.e., the concentration of a test compound that is required to obtain 50% of the maximum effect in the cells) for tested compounds, as shown in Example 41.

Chain of PIM1 (P11309 whole entry): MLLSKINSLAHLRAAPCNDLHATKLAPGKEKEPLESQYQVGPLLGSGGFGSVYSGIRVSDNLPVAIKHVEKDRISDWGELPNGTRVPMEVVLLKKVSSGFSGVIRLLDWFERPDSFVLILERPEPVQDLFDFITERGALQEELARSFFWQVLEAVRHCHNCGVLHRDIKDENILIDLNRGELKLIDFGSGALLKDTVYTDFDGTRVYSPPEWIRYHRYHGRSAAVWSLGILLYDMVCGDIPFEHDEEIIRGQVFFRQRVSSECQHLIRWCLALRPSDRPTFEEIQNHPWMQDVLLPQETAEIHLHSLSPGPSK

Compound | IC50 (PIM1) | IC50 (PIM2) | IC50 (PIM3) | EC50 (KMS11 cells)
CS(=O)(=O)c1cccc(-c2ccc(N)c(-c3cc4c(N5CCC[C@H](N)C5)ccnc4cn3)n2)c1 [Example 22, (S)-2-(4-(3-aminopiperidin-1-yl)-1,7-naphthyridin-6-yl)-6-(3-(methylsulfonyl)phenyl)pyridin-3-amine] | 4 nM | 280 nM | 10 nM | –
Nc1ccc(-c2cccc(S(N)(=O)=O)c2)nc1-c1cc2c(N3CCC[C@H](N)C3)ccnc2cn1 [Example 21, (S)-3-(5-amino-6-(4-(3-aminopiperidin-1-yl)-1,7-naphthyridin-6-yl)pyridin-2-yl)benzenesulfonamide] | 2 nM | 160 nM | 8 nM | –
Nc1ccc(-c2nccs2)nc1-c1cc2c(N3CCC[C@H](N)C3)c(F)cnc2cn1 [Example 1, (S)-2-(4-(3-aminopiperidin-1-yl)-3-fluoro-1,7-naphthyridin-6-yl)-6-(thiazol-2-yl)pyridin-3-amine] | 2 nM | 40 nM | 7 nM | 870 nM
Nc1ccc(-c2cccc(F)c2F)nc1-c1cc2c(N3CCC[C@H](N)C3)ccnc2cn1 [Example 18, (S)-2-(4-(3-aminopiperidin-1-yl)-1,7-naphthyridin-6-yl)-6-(2,3-difluorophenyl)pyridin-3-amine] | 2 nM | 71 nM | 4 nM | 4900 nM
Nc1ccc(-c2c(F)cccc2F)nc1-c1cc2c(N3CCC[C@H](N)C3)ccnc2cn1 [Example 9, (S)-2-(4-(3-aminopiperidin-1-yl)-1,7-naphthyridin-6-yl)-6-(2,6-difluorophenyl)pyridin-3-amine] | 1 nM | 40 nM | 6 nM | 3700 nM
N[C@@H]1CN(c2ccnc3ccc(-c4cccc(-c5c(F)cccc5F)n4)cc23)CC[C@H]1O [Example 35, (3R,4R)-3-amino-1-(6-(6-(2,6-difluorophenyl)pyridin-2-yl)quinolin-4-yl)piperidin-4-ol] | 19 nM | 373 nM | 21 nM | –
Nc1ccc(-c2ccccc2)nc1-c1cc2c(N3CCC[C@H](N)C3)ccnc2cn1 [Example 20, (S)-2-(4-(3-aminopiperidin-1-yl)-1,7-naphthyridin-6-yl)-6-phenylpyridin-3-amine] | 3 nM | 62 nM | 4 nM | 4200 nM
C[C@@H]1C[C@H](N)CN(c2ccnc3ccc(-c4cccc(-c5nccs5)n4)cc23)C1 [Example 31, (3S,5R)-5-methyl-1-(6-(6-(thiazol-2-yl)pyridin-2-yl)quinolin-4-yl)piperidin-3-amine] | 5 nM | 12 nM | 6 nM | 790 nM
Nc1ccc(-c2cc(C(=O)NC3CCCCC3)ccc2F)nc1-c1cc2c(N3CCC[C@H](N)C3)ccnc2cn1 [Example 15, (S)-3-(5-amino-6-(4-(3-aminopiperidin-1-yl)-1,7-naphthyridin-6-yl)pyridin-2-yl)-N-cyclohexyl-4-fluorobenzamide] | 9 nM | 74 nM | 22 nM | 3100 nM
N[C@@H]1CN(c2ccnc3ccc(-c4cccc(-c5c(F)cccc5F)n4)cc23)CC[C@H]1F [Example 32, (3R,4R)-1-(6-(6-(2,6-difluorophenyl)pyridin-2-yl)quinolin-4-yl)-4-fluoropiperidin-3-amine] | 27 nM | 604 nM | 42 nM | –
N[C@@H]1CN(c2ccnc3ccc(-c4cccc(-c5nccs5)n4)cc23)CC[C@H]1O [Example 36, (3R,4R)-3-amino-1-(6-(6-(thiazol-2-yl)pyridin-2-yl)quinolin-4-yl)piperidin-4-ol] | 9 nM | 75 nM | 9 nM | –
Nc1ccc(-c2ccc(F)cc2F)nc1-c1cc2c(N3CCC[C@H](N)C3)ccnc2cn1 [Example 17, (S)-2-(4-(3-aminopiperidin-1-yl)-1,7-naphthyridin-6-yl)-6-(2,4-difluorophenyl)pyridin-3-amine] | 4 nM | 151 nM | 13 nM | –
Cc1cc(-c2ccnc3cnc(-c4nc(-c5c(F)cccc5F)ccc4N)cc23)cc(N)n1 [Example 3, 4-(6-(3-amino-6-(2,6-difluorophenyl)pyridin-2-yl)-1,7-naphthyridin-4-yl)-6-methylpyridin-2-amine] | 15 nM | 809 nM | 25 nM | –
Cc1cc(-c2ccnc3cnc(-c4nc(-c5cc(C(=O)NC(C)C)ccc5F)ccc4N)cc23)cc(N)n1 [Example 4, 3-(5-amino-6-(4-(2-amino-6-methylpyridin-4-yl)-1,7-naphthyridin-6-yl)pyridin-2-yl)-4-fluoro-N-isopropylbenzamide] | 24 nM | 350 nM | 40 nM | –
COc1cccc(-c2ccc(N)c(-c3cc4c(N5CCC[C@H](N)C5)ccnc4cn3)n2)n1 [Example 14, (S)-6-(4-(3-aminopiperidin-1-yl)-1,7-naphthyridin-6-yl)-6′-methoxy-2,2′-bipyridin-5-amine] | 6 nM | 132 nM | 8 nM | –
N[C@H]1CCCN(c2ccnc3ccc(-c4nccc(-c5ccccc5F)n4)cc23)C1 [Example 30] | 8 nM | 347 nM | 20 nM | –
N[C@H]1CCCN(c2ccnc3ccc(-c4cccc(-c5c(F)cccc5F)n4)cc23)C1 [Example 26, (S)-1-(6-(6-(2,6-difluorophenyl)pyridin-2-yl)quinolin-4-yl)piperidin-3-amine] | 16 nM | 331 nM | 26 nM | –
CC(C)NC(=O)c1ccc(F)c(-c2ccc(N)c(-c3cc4c(N5CCC[C@H](N)C5)c(F)cnc4cn3)n2)c1 [Example 2, (S)-3-(5-amino-6-(4-(3-aminopiperidin-1-yl)-3-fluoro-1,7-naphthyridin-6-yl)pyridin-2-yl)-4-fluoro-N-isopropylbenzamide] | 18 nM | 258 nM | 37 nM | –
C[C@@H]1C[C@H](N)CN(c2ccnc3ccc(-c4cccc(-c5c(F)cccc5F)n4)cc23)C1 [Example 34, (3S,5R)-1-(6-(6-(2,6-difluorophenyl)pyridin-2-yl)quinolin-4-yl)-5-methylpiperidin-3-amine] | 2 nM | 33 nM | 7 nM | –
N[C@@H]1CN(c2ccnc3ccc(-c4cccc(-c5nccs5)n4)cc23)CC[C@H]1F [Example 33, (3R,4R)-4-fluoro-1-(6-(6-(thiazol-2-yl)pyridin-2-yl)quinolin-4-yl)piperidin-3-amine] | 22 nM | 244 nM | 21 nM | –
N[C@H]1CCCN(c2ccnc3ccc(-c4nccc(-c5c(F)cccc5F)n4)cc23)C1 [Example 29] | 6 nM | 132 nM | 8 nM | –
